Here are results for three substances from PMC7385626 (Scientific Reports, 2020).

The subject of experiment [1] is HeLa, HT29, C6 and Vero cells. The experiment can be described thus: BrdU Cell Proliferation Assay, range over the cell lines. The format is cell-based. The source says: (§1) The antiproliferative activities of Ag(I) molecules and the starting molecules of the parent molecules, N-bishydeten and [Ag(CN)2]^− compound, on cells, were monitored utilizing by the BrdU Cell Proliferation Assay (BCPA) (Fig. 6).
(§2) The antiproliferative activity of the 2, 3, 4, [Ag(CN)2]^− and 5FU against various cell lines (HeLa ATCC CCL-2, C6 cells ATCC CCL-107, HT29 ATCC HTB-38, and Vero ATCC CCL-81) were preserved and maintained in Dulbecco’s modified eagle’s medium, supplemented with %2 antibiotic (Streptomycin-Penicillin) solution and 10% fetal bovine serum.
(§3) The cell suspension including 5×10^3 cells in 100 µL was supplied into the well cell plates (96-well cell). The therapies of these cells with 2, 3, 4 and [Ag(CN)2]^− in DMSO (max 0.1% DMSO) and 5-Florouracil (5 FU) molecule in DMSO (max 0.1% DMSO) separately at concentration 0.25, 0.50, 1.00, 1.50, 2.00, 2.50, 3.75, and 5.00 µg/mL were carried out. The last volume was adapted to 200 µL by mixture and DMEM and also incubated for 24 h at 37°C with 5% CO2. The antiproliferative activities of the 2, 3, 4 and [Ag(CN)2]^− were determined with using BrdU Cell proliferation ELISA Kit conforming to manufacturer’s assay.
(§4) IC50 values the concentration of a factor which required for other method of in vitro.

For experiment [2], the system named is S. aureus ATCC29213. Nature of the experiment: Disc diffusion assay. The format is cell-based, Staphylococcus aureus. The procedure:
(§5) Therefore, the pathogen bacterial flora and the opportunistic agents may be taken into consideration both in the management of cancer patients and in individual susceptibility to cancer. Indeed, dual acting factors with antimicrobial and antiproliferative potentials can result in improved therapeutic efficacy for cancer cell patients or reduced cancer predisposition. […]. In this study, 10 microbial cultures of this part, belonging to ten types of bacterial were used. The culture was grown in Mueller–Hinton Broth (Merck) for all the bacterial strains at 36 °C. Antimicrobial test was carried out by using disc-diffusion assay utilizing 100 µL of suspension with 10^8 CFU/mL of bacteria and 10^6 CFU/mL of yeast spread on Nutrient Agar and Potato Dextrose Agar, respectively. Also, the blank disc (Oxoid = 6 mm in diameter) was impregnated with 20 µL of each substance (105 µg/disc) and placed on the inoculated agar. Negative controls ([…]) were prepared using the same solvent (water) employed to dissolve each substance. […]. The inoculated plate was incubated at 36 °C for clinical bacterial strains. Antimicrobial activities were evaluated by obtaining the zone of inhibitory effect against the test organisms.

The subject of experiment [3] is P. aeruginosa ATCC9027. Nature of the experiment: Disc diffusion assay. Format: cell-based, Pseudomonas Aureginosa. The procedure:
as §5
(In general: Agar diffusion results depend on both activity and mobility in agar.)

The test system of experiment [4] is E. aerogenes 2924. Nature of the experiment: Disc diffusion assay. Format: cell-based, Enterobacter Aerogenes. The procedure:
as §5

The subject of experiment [5] is HT29 cells. The experiment can be described thus: TUNEL assay. The format is cell-based, human. The procedure: […]. We have evaluated the apoptotic effect of the molecules on HT29 cells utilizing the TUNEL method as an immunohistological study to reveal their mechanism of action on cells. The apoptotic activity of the Ag(I) compounds was examined in human colon cancer cells, HT29. […]. […] […].
Figure 8 Phase-contrast and Fluorescence and image of the HT29 cancer cell line examined by TUNEL assay. […].
In situ finding of apoptosis was conducted utilizing a TUNEL method kit conforming to the manufacturer’s mechanism. HT29 cells (30.000 cells/chamber slide section) were conveyed in poly-L-lysine covered chamber slide. […]. Finally, slide was gently washed with cold DPBS and added 4 % paraformaldehyde for fixation for 60 min at room temperature. Following incubation, the cells were blocked with freshly prepared 3 % H2O2 in methanol at room temperature. Then, the cells were exposed to permeabilized solution (0.1 % sodium citrate and 0.1 % Triton X-100) for 2 minutes on ice. At this stage in order to prepare a DNase I enzyme treated as positive control, 10 μl of DNase-I and 90 μl its buffer was added to slide and incubated at room temperature for 10 minutes. The compotent cell was transferred into TUNEL reaction mixture (50 μL/section) involving a TdT and fluorescein-dUTP mix for 1 h at 37 °C, in a humidified phase and protected from light. In the end of the process, the positive cell nuclei obtained a green fluorescent signal which visualized by a Leica fluorescent microscope.

For experiment [6], the system named is HeLa cells. The experiment can be described thus: Cell migration assay. The format is cell-based. The text has this: Ag(I) compounds at 30% maximal inhibitory concentration (IC30) managed to inhibit tumor cell migration with low cytotoxicity (data not shown). In addition, this cytotoxic ability of Ag(I) compounds at 20% maximal inhibitory concentration (IC20) allowed the suppression of cell migration without damaging the cell membrane at non-toxic concentrations (data not shown). […] While untreated HeLa cells filled 100% of the gap, compounds 2, 3, and 4 managed to spread to 9%, %11, 15% of the gap, respectively (Figure S16; Supplementary Material, Day 2). In addition, the media with Ag(I) compounds were replaced with fresh media following the 72-h incubation, but the HeLa cells could not fill the gap (data not shown). […]. The result was consistent with that of the other studies on Ag(I) complexes containing different ligands[73],[74],[78],[80],[81],[83]–[87].
The migration feature of the 2, 3 and 4 was monitored using the cell migration method. Briefly, an equal number of HeLa cells (3.5 × 10^4 HeLa cells) were seeded into the two reservoirs separated by a 500 µm thick wall and allowed to grow to 90–95 % confluence. […]. The closure of the gap by the cells was photographed 0, 1 and 2 days after incubation by using a phase contrast inverted microscope.
Fig. S16. Effect of 2, 3 and 4 on the migration of HeLa cell line. […]

In experiment [7] the test system is KpnI and BamHI. The experiment can be described thus: Inhibition of restriction endonucleases activity (pTOLT plasmid digestion). The format is biochemical. The procedure:
Fig. S12. […] Following 4 h 37°C digestion of the 14µL with 10U KpnI and BamHI, these digestion products were resolved with 1.5% agarose gel containing ethidium bromide. Lane 1: enzyme + DNA + complex 4, Lane 2: enzyme + DNA + complex 3, Lane 3: enzyme + DNA + complex 2, Lane 4: Positive control (enzyme + DNA), Lane 5: Negative control (plasmid DNA + water); lane 6: DNA marker (1Kb).

In experiment [8] the test system is E. coli 111. The experiment can be described thus: Disc diffusion assay. The format is cell-based, Escherichia coli. The procedure:
as §5

The test system of experiment [9] is S. enteridis ATCC13076. Nature of the experiment: Disc diffusion assay. Format: cell-based, Salmonella Enteritidis. The procedure:
as §5

Experiment [10] deals with HeLa. The experiment can be described thus: BrdU Cell Proliferation Assay (BCPA). Format: cell-based.
Text: as §1, §2, §3, §4

Experiment [11] concerns Vero. Nature of the experiment: BrdU Cell Proliferation Assay (BCPA). The format is cell-based.
Text: as §1, §2, §3, §4

The subject of experiment [12] is C6. Nature of the experiment: BrdU Cell Proliferation Assay (BCPA). The format is cell-based.
Text: as §1, §2, §3, §4

In general, IC50 refers to the concentration at which inhibition is half-maximal.

For “[Cd(N-bishydeten)]4[Ag(CN)2]8[Ag(CN)]2 [Complex 4]”, the IC50 in experiment [1] is 0.48 to 0.63 µM; in [10], 0.61 ± 0.09 µM; in experiment [11] it was 0.63 ± 0.09 µM; in experiment [12] it was 0.6 ± 0.09 µM. In addition, the “inhibition zones, S. aureus ATCC29213” value in [2] is reported as 30 ± 1.0 mm. Further, in experiment [3], the “inhibition zones, P. aeruginosa ATCC9027” value is reported as 30 ± 0.58 mm. The “inhibition zones, E. aerogenes 2924” value in experiment [4] came to 25 ± 1.0 mm. Besides, in [5], the “apoptosis by TUNEL” value is reported as “significantly triggered apoptosis”. In addition, the “part of the gap filled by HeLa cells (migration)” value (“part of the gap filled” for short) in [6] came to 15%. Besides, the “effect on restriction endonucleases activity (KpnI and BamHI digestion of pTOLT plasmid DNA)” value (shortened to “effect”) in experiment [7] is “failed to inhibit the restriction endonucleases activity”. Besides, the “inhibition zones, E. coli 111” value in [8] turned out to be 29 ± 0.58 mm. For the same substance, the “inhibition zones, S. enteridis ATCC13076” value in experiment [9] is reported as 36 ± 1.0 mm.
Take [Cu(N-bishydeten)Ag3(CN)5] [Complex 2]: the IC50 in experiment [1] was 0.87 to 3.64 µM; in experiment [10], 3.64 ± 0.42 µM; in experiment [11], 2.81 ± 0.32 µM; in experiment [12], 0.95 ± 0.09 µM. In experiment [2], the “inhibition zones, S. aureus ATCC29213” value turned out to be 37 ± 1.0 mm. Moreover, in experiment [3], the “inhibition zones, P. aeruginosa ATCC9027” value was found to be 30 ± 1.0 mm. The “inhibition zones, E. aerogenes 2924” value in experiment [4] was determined as 22 ± 1.0 mm. Further, the “apoptosis by TUNEL” value in experiment [5] was “significantly triggered apoptosis”. In addition, the “part of the gap filled” value in experiment [6] is given as 9%. Also, the “effect” value in [7] is “caused the formation of two DNA bands (Lane 3) corresponding to the supercoiled and nicked DNA”. In experiment [8], the “inhibition zones, E. coli 111” value is reported as 32 ± 0.0 mm. The “inhibition zones, S. enteridis ATCC13076” value in [9] is 30 ± 0.58 mm.
As for [Zn(N-bishydeten)Ag3(CN)5] [Complex 3], the IC50 in experiment [1] is 2.37 to 3.34 µM; in [10] it was 3.19 ± 0.37 µM; in experiment [11], 3.06 ± 0.35 µM; in experiment [12], 3.34 ± 0.34 µM. The “inhibition zones, S. aureus ATCC29213” value in experiment [2] was determined as 25 ± 0.58 mm. Further, the “inhibition zones, P. aeruginosa ATCC9027” value in experiment [3] was 30 ± 1.0 mm. Also, the “inhibition zones, E. aerogenes 2924” value in experiment [4] turned out to be 20 ± 1.0 mm. Moreover, the “apoptosis by TUNEL” value in experiment [5] is “significantly triggered apoptosis”. Besides, the “part of the gap filled” value in experiment [6] stood at 11%. For the same substance, the “effect” value in [7] was “failed to inhibit the restriction endonucleases activity”. The “inhibition zones, E. coli 111” value in [8] was 30 ± 0.58 mm. The “inhibition zones, S. enteridis ATCC13076” value in [9] came to 33 ± 0.58 mm.
